Reference: patent US20210395217A1, “PESTICIDALLY ACTIVE AZOLE-AMIDE COMPOUNDS” (SYNGENTA PARTICIPATIONS AG, priority 2018, published 2021)

Tests used:
Assay type in all cases: in vivo
Myzus persicae [1] = assay: Example B6: Myzus persicae (green peach aphid), intrinsic activity, sucrose solution, 24-well; settings: 120 h, test rate of 12 ppm, 5 days after infestation
Source text: Example B6: Myzus Persicae (Green Peach Aphid): Intrinsic Activity
Test compounds prepared from 10′000 ppm DMSO stock solutions were applied by pipette into 24-well microtiter plates and mixed with sucrose solution. The plates were closed with a stretched Parafilm. A plastic stencil with 24 holes was placed onto the plate and infested pea seedlings were placed directly on the Parafilm. The infested plate was closed with a gel blotting paper and another plastic stencil and then turned upside down. The samples were assessed for mortality 5 days after infestation.

Myzus persicae [2] = assay: Example B9: Myzus persicae (green peach aphid), sucrose solution, 96-well; settings: 120 h, application rate of 50 ppm, 5 days after infestation, 96-well plates
Source text: Example B9: Myzus persicae (Green Peach Aphid)
Test compounds prepared from 10′000 ppm DMSO stock solutions were applied by a liquid handling robot into 96-well microtiter plates and mixed with a sucrose solution. Parafilm was stretched over the 96-well microtiter plate and a plastic stencil with 96 holes was placed onto the plate. Aphids were sieved into the wells directly onto the Parafilm. The infested plates were closed with a gel blotting card and a second plastic stencil and then turned upside down. The samples were assessed for mortality 5 days after infestation.

Euschistus heros = assay: Example B2: Euschistus heros (neotropical brown stink bug), soybean leaves sprayed, N2 nymphs; settings: 120 h, application rate of 200 ppm, 5 days after infestation, read-out: control in at least one of the two categories (mortality or growth inhibition)
Protocol: Example B2: Euschistus heros (Neotropical Brown Stink Bug)
Soybean leaves on agar in 24-well microtiter plates were sprayed with aqueous test solutions prepared from 10′000 ppm DMSO stock solutions. After drying the leaves were infested with N2 nymphs. The samples were assessed for mortality and growth inhibition in comparison to untreated samples 5 days after infestation.
The following compounds gave an effect of at least 80% control in at least one of the two categories (mortality or growth inhibition) at an application rate of 200 ppm: F2, F4, F6, F8, F12, F16.

Plutella xylostella [3] = assay: Example B4: Plutella xylostella (diamond back moth), artificial diet, 24-well, eggs; settings: 192 h, application rate of 200 ppm, 8 days after infestation, 24-well plates, read-out: control in at least one of the two categories (mortality or growth inhibition)
Protocol: Example B4: Plutella xylostella (Diamond Back Moth)
24-well microtiter plates with artificial diet were treated with aqueous test solutions prepared from 10′000 ppm DMSO stock solutions by pipetting. After drying, Plutella eggs were pipetted through a plastic stencil onto a gel blotting paper and the plate was closed with it. The samples were assessed for mortality and growth inhibition in comparison to untreated samples 8 days after infestation. The following compounds gave an effect of at least 80% control in at least one of the two categories (mortality or growth inhibition) at an application rate of 200 ppm: […]

Diabrotica balteata = assay: Example B1: Diabrotica balteata (corn root worm), maize sprouts sprayed, L2 larvae; settings: 96 h, application rate of 200 ppm, 4 days after infestation, read-out: control in at least one of the two categories (mortality or growth inhibition)
Protocol: Example B1: Diabrotica balteata (Corn Root Worm)
Maize sprouts placed onto an agar layer in 24-well microtiter plates were treated with aqueous test solutions prepared from 10′000 ppm DMSO stock solutions by spraying. After drying, the plates were infested with L2 larvae (6 to 10 per well). The samples were assessed for mortality and growth inhibition in comparison to untreated samples 4 days after infestation.
The following compounds gave an effect of at least 80% control in at least one of the two categories (mortality or growth inhibition) at an application rate of 200 ppm: […]

Spodoptera littoralis [4] = assay: Example B7: Spodoptera littoralis (Egyptian cotton leaf worm), cotton leaf discs sprayed, L1 larvae; settings: foliar, 72 h, application rate of 200 ppm, 3 days after infestation, read-out: control in at least one of the three categories (mortality, anti-feedant effect, or growth inhibition)
Protocol: Example B7: Spodoptera littoralis (Egyptian Cotton Leaf Worm)
Cotton leaf discs were placed onto agar in 24-well microtiter plates and sprayed with aqueous test solutions prepared from 10′000 ppm DMSO stock solutions. After drying the leaf discs were infested with five L1 larvae. The samples were assessed for mortality, anti-feeding effect, and growth inhibition in comparison to untreated samples 3 days after infestation. Control of Spodoptera littoralis by a test sample is given when at least one of the categories mortality, anti-feedant effect, and growth inhibition is higher than the untreated sample.

Myzus persicae [5] = assay: Example B5: Myzus persicae (green peach aphid), feeding/contact activity, sunflower leaf discs; settings: foliar, 144 h, application rate of 200 ppm, 6 days after infestation
Protocol: Example B5: Myzus persicae (Green Peach Aphid): Feeding/Contact Activity
Sunflower leaf discs were placed onto agar in a 24-well microtiter plate and sprayed with aqueous test solutions prepared from 10′000 ppm DMSO stock solutions. After drying, the leaf discs were infested with an aphid population of mixed ages. The samples were assessed for mortality 6 days after infestation.

Chilo suppressalis = assay: Example B3: Chilo suppressalis (striped rice stem borer), artificial diet, L2 larvae; settings: 144 h, application rate of 200 ppm, 6 days after infestation, read-out: control in at least one of the three categories (mortality, anti-feedant effect, or growth inhibition)
Protocol: Example B3: Chilo suppressalis (Striped Rice Stem Borer)
24-well microtiter plates with artificial diet were treated with aqueous test solutions prepared from 10′000 ppm DMSO stock solutions by pipetting. After drying, the plates were infested with L2 larvae (6-8 per well). The samples were assessed for mortality, anti-feeding effect, and growth inhibition in comparison to untreated samples 6 days after infestation. Control of Chilo suppressalis by a test sample is given when at least one of the categories mortality, anti-feedant effect, and growth inhibition is higher than the untreated sample.

Plutella xylostella [6] = assay: Example B10: Plutella xylostella (diamondback moth), artificial diet, 96-well, eggs; settings: 216 h, application rate of 500 ppm, 9 days after infestation, 96-well plates
Protocol: Example B10: Plutella xylostella (Diamondback Moth)
96-well microtiter plates containing artificial diet were treated with aqueous test solutions, prepared from 10′000 ppm DMSO stock solutions, by a liquid handling robot. After drying, eggs (˜30 per well) were infested onto a netted lid which was suspended above the diet. The eggs hatch and L1 larvae move down to the diet. The samples were assessed for mortality 9 days after infestation.
The following compounds gave an effect of at least 80% average mortality at an application rate of 500 ppm: […]

Spodoptera littoralis [7] = assay: Example B8: Spodoptera littoralis (Egyptian cotton leaf worm), uptake by lettuce roots from agar, eggs; settings: 144 h, test rate of 12.5 ppm, 6 days after infestation, compound absorbed by lettuce roots, read-out: control in at least one of the three categories (mortality, anti-feeding, or growth inhibition)
Source text: Example B8: Spodoptera Littoralis (Egyptian Cotton Leaf Worm)
Test compounds were applied by pipette from 10′000 ppm DMSO stock solutions into 24-well plates and mixed with agar. Lettuce seeds were placed onto the agar and the multi well plate was closed by another plate which contained also agar. After 7 days the compound was absorbed by the roots and the lettuce grew into the lid plate. The lettuce leaves were then cut off into the lid plate. Spodoptera eggs were pipetted through a plastic stencil onto a humid gel blotting paper and the lid plate was closed with it. The samples were assessed for mortality, anti-feedant effect and growth inhibition in comparison to untreated samples 6 days after infestation.
The following compounds gave an effect of at least 80% control in at least one of the three categories (mortality, anti-feeding, or growth inhibition) at a test rate of 12.5 ppm: […]

Cc1nc(C(C)NC(=O)c2cc(Br)cc(C(F)(F)F)c2)n(-c2ccc(C#N)cn2)n1 (centres unmarked) [Compound F8, 3-bromo-N-[1-[2-(5-cyano-2-pyridyl)-5-methyl-1,2,4-triazol-3-yl]ethyl]-5-(trifluoromethyl) benzamide]
≥ 80%: mortality at 12 ppm (Myzus persicae [1]) | mortality at 50 ppm (Myzus persicae [2]) | percent control (mortality or growth inhibition) at 200 ppm (Euschistus heros) | percent control (mortality or growth inhibition) at 200 ppm (Plutella xylostella [3]) | percent control (mortality or growth inhibition) at 200 ppm (Diabrotica balteata) | percent control (mortality, anti-feedant effect or growth inhibition) at 200 ppm (Spodoptera littoralis [4])

Cc1nc(C(C)NC(=O)c2cc(OC(F)F)cc(C(F)(F)F)c2)n(-c2ccc(C#N)cn2)n1 (centres unmarked) [Compound F6, N-[1-[2-(5-cyano-2-pyridyl)-5-methyl-1,2,4-triazol-3-yl]ethyl]-3-(difluoromethoxy)-5-(trifluoromethyl) benzamide]
≥ 80%: mortality at 12 ppm (Myzus persicae [1]) | mortality at 50 ppm (Myzus persicae [2]) | percent control (mortality or growth inhibition) at 200 ppm (Euschistus heros) | percent control (mortality or growth inhibition) at 200 ppm (Plutella xylostella [3]) | percent control (mortality or growth inhibition) at 200 ppm (Diabrotica balteata) | percent control (mortality, anti-feedant effect or growth inhibition) at 200 ppm (Spodoptera littoralis [4])

Cc1nc(C(C)N(C)C(=O)c2cc(C(F)(F)F)cc(C(F)(F)F)c2)n(-c2ccc(C#N)cn2)n1 (centres unmarked) [Compound F16, N-[1-[2-(5-cyano-2-pyridyl)-5-methyl-1,2,4-triazol-3-yl]ethyl]-N-methyl-3,5-bis(trifluoromethyl) benzamide]
≥ 80%: mortality at 200 ppm (Myzus persicae [5]) | mortality at 12 ppm (Myzus persicae [1]) | mortality at 50 ppm (Myzus persicae [2]) | percent control (mortality, anti-feedant effect or growth inhibition) at 200 ppm (Chilo suppressalis) | percent control (mortality or growth inhibition) at 200 ppm (Euschistus heros) | percent control (mortality or growth inhibition) at 200 ppm (Plutella xylostella [3]) | percent control (mortality or growth inhibition) at 200 ppm (Diabrotica balteata) | percent control (mortality, anti-feedant effect or growth inhibition) at 200 ppm (Spodoptera littoralis [4])

CC(c1ncnn1-c1ccc(C#N)cn1)N(C)C(=O)c1cc(C(F)(F)F)cc(C(F)(F)F)c1 (centres unmarked) [Compound F2, N-[1-[2-(5-cyano-2-pyridyl)-1,2,4-triazol-3-yl]ethyl]-N-methyl-3,5-bis(trifluoromethyl) benzamide]
≥ 80%: mortality at 500 ppm (Plutella xylostella [6]) | mortality at 12 ppm (Myzus persicae [1]) | mortality at 50 ppm (Myzus persicae [2]) | percent control (mortality, anti-feeding or growth inhibition) at 12.5 ppm (Spodoptera littoralis [7]) | percent control (mortality, anti-feedant effect or growth inhibition) at 200 ppm (Chilo suppressalis) | percent control (mortality or growth inhibition) at 200 ppm (Euschistus heros) | percent control (mortality or growth inhibition) at 200 ppm (Plutella xylostella [3]) | percent control (mortality or growth inhibition) at 200 ppm (Diabrotica balteata) | percent control (mortality, anti-feedant effect or growth inhibition) at 200 ppm (Spodoptera littoralis [4])
